Measured values from paper PMC8308845, “Discovery of Novel Chemical Series of OXA-48 β-Lactamase Inhibitors by High-Throughput Screening” (Pharmaceuticals, 2021).
In brackets after ≈: the same amount, converted by molar mass.

Experiments:
E. coli ATCC BAA-2523 = assay: MIC by broth microdilution, β-lactam-resistant strain producing OXA-48; format: cell-based, Escherichia coli; details: Escherichia coli, ATCCBAA2523, no β-lactam, BLI tested at 32 µg/mL, read-out: MIC, BLI alone
From the text: (§1) To evaluate the capability of restoring β-lactam susceptibility, the two most promising representatives of SC_2 (ID3) and SC_7 (ID2) were screened alone and in combination with ampicillin (AMP) and IMP against sensitive and resistant Gram-negative bacteria. Avibactam and tazobactam were also included in the MIC characterization as BLI reference compounds. Specifically, we used E. coli ATCC25922 as antibiotic-sensitive strain, while E. coli ATCC BAA-2523 and K. pneumoniae ATCC BAA-2524 as β-lactam-resistant bacteria, producing OXA-48 carbapenemase.
(§2) Test compounds and tazobactam were tested at 32 µg/mL, while avibactam was applied at 4 µg/mL. […] Both antibiotics were selected for the combination study as they can be hydrolyzed by the target OXA-48 enzyme.
(§3) MIC values were determined by the broth dilution method and interpreted using published guidelines described by Clinical and Laboratory Standards Institute (CLSI).
(§4) All BLIs were dissolved in 100% DMSO and they were tested at a fixed concentration of 32 µg/mL and 1% of DMSO final concentration. Avibactam was used as reference β-lactamase inhibitor. All antimicrobials were prepared in line with CLSI susceptibility testing standards. AMP (USP # 1033000; batch no. K1M493) was dissolved at 5.12 mg/mL, IMP (USP # 1337809; batch no. R038R0) and avibactam (Biochem # NXL 104; batch no. 20180726) were dissolved at 1.28 mg/mL in the respective solvents recommended by CLSI (2). Solutions at 4X the final concentrations of the test range were made in Cation adjusted Mueller-Hinton broth (CA-MHB, BD # 212322; batch no. 6117994; Expiry date: 29.02.2020) by serial dilutions, and then diluted 2-fold with CA-MHB (for antimicrobials alone), or with the BLIs/avibactam (for combinations of new/reference inhibitors and antimicrobials). Moreover, all BLIs were tested alone at a fixed concentration of 32 μg/mL. The final concentration of DMSO in the test tubes was 1% for each different combination.
(§5) 50 μL of each well were then transferred from the masterblock into 96-well plates to whom were then added 50 μL of the final inoculum. MIC tests were performed by broth microdilution in line with CLSI susceptibility testing standards. Bacterial inocula were prepared at ca. 1 × 10^6 CFU/mL by diluting 100-fold a 0.5 McFarland suspension in CA-MHB with TES (TREK Diagnostic Systems, Product code: T3462; Batch: 356347; Expiry date: 12-Jun-2019). 50 μL of antibacterial solutions at 2 × the final concentrations were diluted 2-fold with 50 μL of inoculum to give a final inoculum of ca. 5 × 10^5 CFU/mL and desired test concentrations of antibacterial agents. Test plates were incubated according to CLSI guidelines and read visually. MIC values corresponded to the first well with no visible growth.

HepG2 cells = assay: Cytotoxicity assay (cell viability, alamarBlue); format: cell-based; details: 48 h incubation, dose response
Description: (§6) Based on the promising BLI profile of compound ID2, a preliminary in vitro ADMET assessment in terms of kinetic solubility and cytotoxicity was carried out. […] Also, it was tested for cell viability in dose response against HepG2 cells, following 48 h incubation time.
Compound ID2 was tested in cell viability assays with HepG2 cells. The viability of cultured cells was evaluated using alamarBlue staining as described by Nociari et al.. Concentration–response curves were prepared for each compound by testing eight concentrations in triplicate with three-fold dilutions starting from 100 µM to […]. After incubation for 48 h at 37 °C, the percentage of control activity was calculated by comparing the fluorescence reading in the presence of the test compound to that in the absence of a test compound (control). IC50 values were determined by non-linear regression analysis of the concentration–response curves. These parameters were obtained by Hill equation curve fitting. Chlorpromazine was used as a reference compound.

[1] = Aqueous solubility assay (PBS, pH 7.4); format: physicochemical; details: isotonic buffer pH 7.4, aqueous buffer, kinetic from dmso stock, buffered aqueous solution at pH 7.4, 200 μM nominal, 2% DMSO, room temperature
Description: as §6
Compound was dissolved in DMSO as stock solution and then added to isotonic buffer (pH 7.4) at a concentration of 200 μM (2% DMSO final concentration). After a 24 h incubation under shaking at room temperature, dissolved compound is measured by a chromatographic procedure with photodiode array detection. Metoprolol tartrate, rifampicin, ketoconazole, phenytoin, haloperidol, simvastatin, diethylstilbestrol, and tamoxifen were used as reference compounds for different solubility degrees.

E. coli ATCC25922 = assay: MIC by broth microdilution, antibiotic-sensitive strain; format: cell-based; details: Escherichia coli, no β-lactam, BLI tested at 32 µg/mL, read-out: MIC, BLI alone
From the text: as §1, §2, §3, §4, §5

SMILES: CCc1ccc(-c2n[nH]c3nc(-c4ccc(C(=O)O)cc4)cc(C(=O)O)c23)cc1 [ID2]
- MIC (E. coli ATCC BAA-2523): > 32 µg/mL
- cytotoxicity (no sign of toxicity up to the highest tested concentration) (HepG2 cells): > 100 µM
- solubility kinetic at 24 h [1]: 179 µM (≈ 69.5 µg/mL)
- MIC (E. coli ATCC25922): > 32 µg/mL

SMILES: C[C@]1(Cn2ccnn2)[C@H](C(=O)O)N2C(=O)C[C@H]2S1(=O)=O [tazobactam, reference compound]
- MIC (E. coli ATCC BAA-2523): > 32 µg/mL
